Reference: patent US8524770B2, “Wool care composition” (Director General, Defence Research & Development …, priority 2009, dated 2013)

How the values were obtained:
[1] = test system: clothes moths; details: Abbott & Billings 1935, Journal of Economic Entomology; cited from earlier work
[2] = test system: clothes moths; test: Protection of woollen articles / repellency against clothes moths; type: in vivo; details: confirmed by the present inventors
Description: Conventionally naphthalene or Paradichlorobenzene is known in the art to be used to protect woollen and fur-feather lined articles from insect damage during their storage. But these above compounds are ineffective against clothes moths and thus unable to provide protection to the woollen items as established by Abbott & Billings of USA in 1935 and published their work in the Journal of Economic Entomology on page 493-495 as entitled “Further work showing that Paradichlorobenzene, Naphthalene and cedar oils are ineffective as repellents against clothes moth”. The ineffectiveness of the naphthalene balls in protection of woollen articles from insect pests is also confirmed by the present inventors.

Row | Structure (SMILES) | Effectiveness as repellent against clothes moths [1] | Protection of woollen articles from insect pests [2]
1 | Clc1ccc(Cl)cc1 [Paradichlorobenzene] | ineffective | –
2 | c1ccc2ccccc2c1 [naphthalene] | ineffective | ineffectiveness
